From patent US20220088146A1, “Melanocortin Receptor-Specific Peptide Formulations and Methods for Gastrointestinal Tract-Specific Delivery” (Palatin Technologies, Inc., priority 2018, published 2022)
Bridge positions count the residues as written; N and C are the ends. Square brackets hold non-standard residues; d marks the D form. Peptide text beside a SMILES is read from it. dPhe(3,4-F2) = N[C@H](Cc1ccc(F)c(F)c1)C(=O)O; dPhe(4-Me) = Cc1ccc(C[C@@H](N)C(=O)O)cc1; dPhe(2-Cl) = N[C@H](Cc1ccccc1Cl)C(=O)O; Nle = CCCC[C@H](N)C(=O)O; Orn = NCCC[C@H](N)C(=O)O; Dab = NCC[C@H](N)C(=O)O; Dap = NC[C@H](N)C(=O)O

Target: hMC1r (Homo sapiens, UniProt Q01726)
Assay: Assay for agonist activity: cAMP accumulation in HBL melanoma cells
Assay type: cell-based
Design: endogenous in cells; host or cells: HBL human melanoma cells
Details: HBL, compared to NDP-α-MSH as 100%, read-out: MC-1 Emax (average; cAMP HBL)
Procedure: 8.2 Assay for Agonist Activity.
Confluent HBL cells that express hMC1r or HEK-293 cells that express recombinant hMC4r were detached from culture plates by incubation in enzyme-free cell dissociation buffer. Dispersed cells were suspended in Earle's Balanced Salt Solution containing 10 mM HEPES (pH 7.5), 1 mM MgCl2, 1 mM glutamine, 0.5% albumin and 0.3 mM 3-isobutyl-1-methyl-xanthine (IBMX), a phosphodiesterase inhibitor. The cells were plated in 96-well plates at a density of 0.4×10^5 cells per well for HBL cells and 0.5×10^5 cells per well for HEK-293 cells and pre-incubated for 10 minutes. Cells were exposed for 15 minutes at 37° C. to peptides of the present invention dissolved in DMSO (final DMSO concentration of 1%) at a concentration range of 0.05-5000 nM in a total assay volume of 200 μL. […] Data analysis was performed by nonlinear regression analysis with Graph-Pad Prism® software.
All results are expressed in nM except for Emax values, which are percentage values. Peptides with the captioned primary sequence were synthesized and purified as described in Section 7 above, with the resulting peptide having the structure depicted.

hMC1r, sequence (Q01726 whole entry): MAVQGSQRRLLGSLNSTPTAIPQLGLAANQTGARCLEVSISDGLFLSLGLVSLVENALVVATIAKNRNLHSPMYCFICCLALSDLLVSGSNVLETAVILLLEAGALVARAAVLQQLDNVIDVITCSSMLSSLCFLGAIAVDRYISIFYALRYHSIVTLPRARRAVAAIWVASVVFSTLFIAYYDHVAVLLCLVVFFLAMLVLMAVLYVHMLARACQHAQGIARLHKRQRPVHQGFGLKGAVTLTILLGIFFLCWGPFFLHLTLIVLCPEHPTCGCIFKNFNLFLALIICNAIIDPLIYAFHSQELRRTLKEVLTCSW

Compound	Emax [%]
CCCC[C@H](NC(C)=O)C(=O)N[C@H]1CCC(=O)NCC[C@@H](C(=O)N[C@@H](Cc2c[nH]c3ccccc23)C(N)=O)NC(=O)[C@H](CCCNC(=N)N)NC(=O)[C@@H](Cc2ccccc2)NC(=O)[C@H](CCCNC(=N)N)NC1=O [Example 9.37, Ac-Nle-cyclo(Glu-Arg-D-Phe-Arg-Dab)-Trp-NH2]	100
CCCC[C@H](NC(C)=O)C(=O)N[C@H]1CSSC[C@@H](C(=O)N[C@@H](Cc2c[nH]c3ccccc23)C(N)=O)NC(=O)[C@H](CCCNC(=N)N)NC(=O)[C@@H](Cc2ccccc2)NC(=O)[C@H](Cc2c[nH]cn2)NC1=O [Example 9.5, Ac-Nle-cyclo(Cys-His-D-Phe-Arg-Cys)-Trp-NH2]	87
CCCC[C@H](NC(C)=O)C(=O)N[C@H]1CCNC(=O)CCC(=O)NCC[C@@H](C(=O)N[C@@H](Cc2c[nH]c3ccccc23)C(N)=O)NC(=O)[C@H](CCCNC(=N)N)NC(=O)[C@@H](Cc2ccccc2)NC(=O)[C@H](Cc2c[nH]cn2)NC1=O [Example 9.27, Ac-Nle-cyclo(Dab-His-D-Phe-Arg-Dab)-Trp-NH2]	92
CCCC[C@H](NC(C)=O)C(=O)N[C@H]1CCC(=O)NCC[C@@H](C(=O)N[C@@H](Cc2c[nH]c3ccccc23)C(N)=O)NC(=O)[C@H](CCCNC(=N)N)NC(=O)[C@@H](Cc2ccccc2)NC(=O)[C@H](CCCNC(N)=O)NC1=O [Example 9.38, Ac-Nle-cyclo(Glu-Cit-D-Phe-Arg-Dab)-Trp-NH2]	97
CCCC[C@H](NC(C)=O)C(=O)N[C@H]1CCC(=O)NCC[C@@H](C(N)=O)NC(=O)[C@H](CCCNC(=N)N)NC(=O)[C@@H](Cc2ccccc2Cl)NC(=O)[C@H](CCCN)NC1=O [Example 9.57, Ac-Nle-cyclo(Glu-Orn-D-Phe(2-Cl)-Arg-Dab)-NH2] (Ac-[Nle]E[Orn][dPhe(2-Cl)]R[Dab]-NH2; lactam 2-6)	88
CCCCC(=O)N[C@H]1CCC(=O)NCC[C@@H](C(=O)N[C@@H](Cc2c[nH]c3ccccc23)C(N)=O)NC(=O)[C@H](CCCNC(=N)N)NC(=O)[C@@H](Cc2ccccc2)NC(=O)[C@H](Cc2c[nH]cn2)NC1=O [Example 9.16, CH3—(CH2)3—C(═O)-cyclo(Glu-His-D-Phe-Arg-Dab)-Trp-NH2]	89
CCCC[C@H](NC(C)=O)C(=O)N[C@H]1CCC(=O)NCC[C@@H](C(N)=O)NC(=O)[C@H](CCCNC(=N)N)NC(=O)[C@@H](Cc2ccc(C)cc2)NC(=O)[C@H](CCCN)NC1=O [Example 9.63, Ac-Nle-cyclo(Glu-Orn-D-Phe(4-Me)-Arg-Dab)-NH2] (Ac-[Nle]E[Orn][dPhe(4-Me)]R[Dab]-NH2; lactam 2-6)	96
CCCC[C@H](NC(C)=O)C(=O)N[C@H]1CCC(=O)NCC[C@@H](C(N)=O)NC(=O)[C@@H](Cc2ccccc2)NC(=O)[C@H](Cc2c[nH]cn2)NC1=O [Example 9.46, Ac-Nle-cyclo(Glu-His-D-Phe-Dab)-NH2] (Ac-[Nle]EH[dF][Dab]-NH2; lactam 2-5)	51
CCCC[C@H](NC(C)=O)C(=O)N[C@H]1CCC(=O)NCC[C@@H](C(=O)N[C@@H](Cc2c[nH]c3ccccc23)C(N)=O)NC(=O)[C@H](CCCNC(=N)N)NC(=O)[C@@H](Cc2ccccc2)NC(=O)[C@H](CCCCN)NC1=O [Example 9.40, Ac-Nle-cyclo(Glu-Lys-D-Phe-Arg-Dab)-Trp-NH2]	108
CC(=O)N[C@@H](Cc1ccccc1)C(=O)N[C@H]1CCC(=O)NCC[C@@H](C(=O)N[C@@H](Cc2c[nH]c3ccccc23)C(N)=O)NC(=O)[C@H](CCCNC(=N)N)NC(=O)[C@@H](Cc2ccccc2)NC(=O)[C@H](Cc2c[nH]cn2)NC1=O [Example 9.13, Ac-Phe-cyclo(Glu-His-D-Phe-Arg-Dab)-Trp-NH2]	75
CCCC[C@H](NC(C)=O)C(=O)N[C@H]1CCC(=O)NCC[C@@H](C(N)=O)NC(=O)[C@H](CCCNC(=N)N)NC(=O)[C@@H](Cc2ccc(OC)cc2)NC(=O)[C@H](CCCN)NC1=O [Example 9.64, Ac-Nle-cyclo(Glu-Orn-D-Phe(4-OMe)-Arg-Dab)-NH2] (Ac-[Nle]E[Orn][dY](Me)R[Dab]-NH2; lactam 2-6)	99
CCCC[C@H](NC(C)=O)C(=O)N[C@H]1CCC(=O)NCC[C@@H](C(=O)N[C@@H](C)C(N)=O)NC(=O)[C@H](CCCNC(=N)N)NC(=O)[C@@H](Cc2ccccc2)NC(=O)[C@H](Cc2c[nH]cn2)NC1=O [Example 9.25, Ac-Nle-cyclo(Glu-His-D-Phe-Arg-Dab)-Ala-NH2] (Ac-[Nle]EH[dF]R[Dab]A-NH2; lactam 2-6)	97
N=C(N)NCCC[C@@H]1NC(=O)[C@@H](Cc2ccccc2)NC(=O)[C@H](Cc2c[nH]cn2)NC(=O)[C@@H](NC(=O)CCc2ccccc2)CCC(=O)NCC[C@@H](C(=O)N[C@@H](Cc2c[nH]c3ccccc23)C(N)=O)NC1=O [Example 9.24, phenyl propanoyl-cyclo(Glu-His-D-Phe-Arg-Dab)-Trp-NH2]	83
CCCC[C@H](NC(C)=O)C(=O)N[C@H]1CCC(=O)NCC[C@@H](C(N)=O)NC(=O)[C@H](CCCNC(=N)N)NC(=O)[C@@H](Cc2ccc(F)c(F)c2)NC(=O)[C@H](CCCN)NC1=O [Example 9.62, Ac-Nle-cyclo(Glu-Orn-D-Phe(3,4-F)-Arg-Dab)-NH2] (Ac-[Nle]E[Orn][dPhe(3,4-F2)]R[Dab]-NH2; lactam 2-6)	97
CCCC(=O)N[C@H]1CCC(=O)NCC[C@@H](C(=O)N[C@@H](Cc2c[nH]c3ccccc23)C(N)=O)NC(=O)[C@H](CCCNC(=N)N)NC(=O)[C@@H](Cc2ccccc2)NC(=O)[C@H](Cc2c[nH]cn2)NC1=O [Example 9.15, CH3—(CH2)2—C(═O)-cyclo(Glu-His-D-Phe-Arg-Dab)-Trp-NH2]	91
CCCC[C@H](NC(C)=O)C(=O)N[C@H]1CCC(=O)NCC[C@@H](C(=O)N[C@@H](CCCCN)C(N)=O)NC(=O)[C@H](CCCNC(=N)N)NC(=O)[C@@H](Cc2ccccc2)NC(=O)[C@H](Cc2c[nH]cn2)NC1=O [Example 9.39, Ac-Nle-cyclo(Glu-His-D-Phe-Arg-Dab)-Lys-NH2]	91
CC(=O)N[C@H](Cc1ccccc1)C(=O)N[C@H]1CCC(=O)NCC[C@@H](C(=O)N[C@@H](Cc2c[nH]c3ccccc23)C(N)=O)NC(=O)[C@H](CCCNC(=N)N)NC(=O)[C@@H](Cc2ccccc2)NC(=O)[C@H](Cc2c[nH]cn2)NC1=O [Example 9.12, Ac-D-Phe-cyclo(Glu-His-D-Phe-Arg-Dab)-Trp-NH2]	75
CCCC[C@H](NC(C)=O)C(=O)N[C@H]1CCC(=O)NCC[C@@H](C(=O)N[C@@H](Cc2c[nH]c3ccccc23)C(N)=O)NC(=O)[C@H](C)NC(=O)[C@@H](Cc2ccccc2)NC(=O)[C@H](Cc2c[nH]cn2)NC1=O [Example 9.48, Ac-Nle-cyclo(Glu-His-D-Phe-Ala-Dab)-Trp-NH2]	72
CCCC[C@H](NC(C)=O)C(=O)N[C@H]1CCC(=O)NCC[C@@H](C(N)=O)NC(=O)[C@H](C)NC(=O)[C@@H](Cc2ccccc2)NC(=O)[C@H](Cc2c[nH]cn2)NC1=O [Example 9.33, Ac-Nle-cyclo(Glu-His-D-Phe-Ala-Dab)-NH2]	73
N=C(N)NCCC[C@@H]1NC(=O)[C@@H](Cc2ccccc2)NC(=O)[C@H](Cc2c[nH]cn2)NC(=O)[C@@H](NC(=O)CC2CCCC2)CCC(=O)NCC[C@@H](C(=O)N[C@@H](Cc2c[nH]c3ccccc23)C(N)=O)NC1=O [Example 9.21, cyclopentyl acetyl-cyclo(Glu-His-D-Phe-Arg-Dab)-Trp-NH2]	83
N=C(N)NCCC[C@@H]1NC(=O)[C@@H](Cc2ccccc2)NC(=O)[C@H](Cc2c[nH]cn2)NC(=O)[C@@H](NC(=O)C2CC2)CCC(=O)NCC[C@@H](C(=O)N[C@@H](Cc2c[nH]c3ccccc23)C(N)=O)NC1=O [Example 9.19, cyclo-propanoyl-cyclo(Glu-His-D-Phe-Arg-Dab)-Trp-NH2]	83
CCCC[C@H](NC(C)=O)C(=O)N[C@H]1CCC(=O)NCCCC[C@@H](C(=O)N[C@@H](Cc2c[nH]c3ccccc23)C(N)=O)NC(=O)[C@H](CCCNC(=N)N)NC(=O)[C@@H](Cc2ccccc2)NC(=O)[C@H](Cc2c[nH]cn2)NC1=O [Example 9.1, Ac-Nle-cyclo(Glu-His-D-Phe-Arg-Lys)-Trp-NH2]	97
CCCC[C@H](NC(C)=O)C(=O)N[C@H]1CCC(=O)NCC[C@@H](C(=O)N[C@@H](Cc2c[nH]c3ccccc23)C(N)=O)NC(=O)[C@H](CCCNC(=N)N)NC(=O)[C@H](Cc2ccccc2)NC(=O)[C@H](Cc2c[nH]cn2)NC1=O [Example 9.8, Ac-Nle-cyclo(Glu-His-Phe-Arg-Dab)-Trp-NH2]	88
CCCC[C@H](NC(C)=O)C(=O)N[C@H]1CCC(=O)NCC[C@@H](C(N)=O)NC(=O)[C@H](CCCNC(=N)N)NC(=O)[C@@H](Cc2ccccc2)NC(=O)[C@H](CCCN)NC1=O [Example 9.56, Ac-Nle-cyclo(Glu-Orn-D-Phe-Arg-Dab)-NH2] (Ac-[Nle]E[Orn][dF]R[Dab]-NH2; lactam 2-6)	102
CCCC[C@H](NC(C)=O)C(=O)N[C@H]1CCC(=O)NCC[C@@H](C(=O)N[C@@H](Cc2cccc3ccccc23)C(N)=O)NC(=O)[C@H](CCCNC(=N)N)NC(=O)[C@@H](Cc2ccccc2)NC(=O)[C@H](Cc2c[nH]cn2)NC1=O [Example 9.30, Ac-Nle-cyclo(Glu-His-D-Phe-Arg-Dab)-Nal 1-NH2]	72
CCCC[C@H](NC(C)=O)C(=O)N[C@H]1CC(=O)NC[C@@H](C(=O)N[C@@H](Cc2c[nH]c3ccccc23)C(N)=O)NC(=O)[C@H](CCCNC(=N)N)NC(=O)[C@@H](Cc2ccccc2)NC(=O)[C@H](Cc2c[nH]cn2)NC1=O [Example 9.4, Ac-Nle-cyclo(Asp-His-D-Phe-Arg-Dap)-Trp-NH2] (Ac-[Nle]DH[dF]R[Dap]W-NH2; lactam 2-6)	88
